Test results from the NIST ThermoML archive (doi:10.1016/j.jct.2008.04.008).

Assay: mn = molality of the nth substance listed, in mol/kg
Conditions: Liquid; for speed of sound: Pulse-echo method

[Na+].[O-][Cl+3]([O-])([O-])[O-] [sodium perchlorate] + CO
Conditions | mass density, 283.15 K [kg/m3] | mass density, 288.15 K [kg/m3] | mass density, 293.15 K [kg/m3] | mass density, 298.15 K [kg/m3] | mass density, 303.15 K [kg/m3] | mass density, 308.15 K [kg/m3] | mass density, 313.15 K [kg/m3] | speed of sound, 298.15 K [m/s]
m1 = 0.06243 | 805.671 | 800.986 | 796.296 | 791.593 | 786.871 | 782.134 | 777.365 | 1106.7
m1 = 0.0815 | 807.203 | 802.517 | 797.826 | 793.122 | 788.409 | 783.67 | 778.903 | 1107.7
m1 = 0.1008 | 808.744 | 804.058 | 799.365 | 794.669 | 789.952 | 785.213 | 780.447 | 1108.9
m1 = 0.1221 | 810.429 | 805.746 | 801.058 | 796.356 | 791.635 | 786.904 | 782.14 | 1110.1
m1 = 0.1416 | 811.984 | 807.3 | 802.609 | 797.903 | 793.191 | 788.455 | 783.694 | 1111.2
m1 = 0.1625 | 813.649 | 808.965 | 804.274 | 799.57 | 794.858 | 790.121 | 785.36 | 1112.4
m1 = 0.2036 | 816.875 | 812.189 | 807.5 | 802.798 | 798.077 | 793.334 | 788.581 | 1115.1
m1 = 0.2459 | 820.175 | 815.49 | 810.8 | 806.099 | 801.382 | 796.642 | 791.885 | 1117
m1 = 0.2865 | 823.32 | 818.628 | 813.937 | 809.237 | 804.52 | 799.783 | 795.021 | 1119
m1 = 0.3276 | 826.533 | 821.841 | 817.143 | 812.442 | 807.725 | 802.987 | 798.225 | 1121.3
m1 = 0.3701 | 829.792 | 825.099 | 820.402 | 815.691 | 810.974 | 806.236 | 801.475 | 1123.6
m1 = 0.412 | 832.991 | 828.296 | 823.6 | 818.891 | 814.168 | 809.417 | 804.668 | 1125.5
